Data reported in patent publication US11013723B1, “Solid forms of a thiazolidinone compound, compositions and methods of use thereof” (Celgene Corporation, priority 2018, dated 2021).
Peptide text beside a SMILES is read from it.

Test: Slurry ripening comparative co-crystal screening (solid form outcome)
Assay type: physicochemical
Details: Compound 1 + coformer, cycled 25° C./5° C., 10 days; for Slurry ripening result, EtOAc: EtOAc saturated with coformer; for Slurry ripening result, MTBE: MTBE saturated with coformer; for Slurry ripening result, EtOH: EtOH saturated with coformer
Procedure: In certain embodiments, for example, the method may comprise slurry ripening. […] In certain embodiments, the solvent is 1-butanol or toluene.
In certain embodiments, for example, the saturated coformer solution may be prepared by 1) combining the quantity of coformer in a quantity (for example, about 2 mL) of solvent; 2) mixing the combined quantities at a predetermined temperature (for example 23° C.) for a predetermined period of time (for example at least about 16 hours or less than about 16 hours) to form a suspension; and 3) filtering the suspension (for example filtering the suspension through an 0.2 micron PTFE filter if the solvent is an organic solvent or an 0.45 micron filter if the solvent is an organic solvent mixed with water). In certain embodiments, for example, the solvent may be selected from the group consisting of ethyl alcohol, a solution of ethyl acetate and heptane (for example a solution having an ethyl acetate to heptane at ratio of 2:8 v/v), a solution of acetonitrile and water (for example a solution having a acetonitrile to water ratio of 1:9 v/v), and t-butyl methyl ether (MTBE), or a combination of two or more of the foregoing.
A series of comparative crystallization experiments were conducted with 41 potential coformers and 7 solvents by two different methods.

O=C(O)c1ccc2ccccc2c1O [1-Hydroxy-2-Naphthoic acid]
Slurry ripening result, EtOAc: PCH
Slurry ripening result, MTBE: A*

CC1(C(=O)O)CCC(C(=O)O)C1(C)C (stereo not drawn) [(+)-Camphoric acid]
Slurry ripening result, MTBE: PCH

O=C(O)[C@H](O)[C@@H](O)C(=O)O [(+)-L-Tartaric acid]
Slurry ripening result, EtOAc: F*

COC(=O)[C@H](Cc1ccccc1)NC(=O)[C@@H](N)CC(=O)O [Aspartame] (H-Asp-Phe-OMe)
Slurry ripening result, EtOAc: A + F

NC(=O)c1ccncc1 [Isonicotinamide]
Slurry ripening result, EtOH: B*

O=C(O)[C@@H](O)c1ccccc1 [L-(+)-Mandelic acid]
Slurry ripening result, MTBE: PCH

O=C(O)CC(=O)O [Malonic acid]
Slurry ripening result, Toluene (Toluene saturated with coformer): F*

NC(=O)c1cccnc1 [Nicotinamide]
Slurry ripening result, EtOH: PCH

Oc1cccc(O)c1O [Pyrogallol]
Slurry ripening result, MTBE: PCH

O=c1c(O)c(-c2ccc(O)c(O)c2)oc2cc(O)cc(O)c12 [Quercetin]
Slurry ripening result, EtOH: PCH

NC(N)=O [Urea]
Slurry ripening result, MTBE: PCH

(−)-L-Malic acid
Slurry ripening result, EtOAc: PCH
Slurry ripening result, EtOH: PCH
